Reference: patent US20210346354A1, “MACROPINOCYTOSIS IN CANCER” (Memorial Sloan-Kettering Cancer Center, priority 2015, published 2021)

Experiments:
[1] = tested on: K-Ras mutant tumor cell lines (KRPC, MiaPaCa-2, A549); assay: Proliferation of K-Ras mutant tumor cell lines; format: cell-based; conditions: 250 nM torin 1
Procedure: Dashed lines indicate starting cell numbers. P-values were calculated using a two-tailed unpaired t-test. ***p<0.001. […] Under experimental conditions, cells have abundant glucose supplied in their medium and are thus unlikely to utilize leucine for lipid as opposed to protein synthesis during anabolic growth. Consistent with this, when cells were labeled with ^14C-leucine, the ratio of protein to lipid incorporation of label was: control cells 364±69, torin-1 treated cells 203±27, raptor-deficient cells 87±3. Data are represented as mean±STDEV (n=3).
Cell culture experiments were performed at 37° C. and 5% CO2 in DMEM/F12 with 10% dialyzed FBS (molecular weight cut-off 10,000; Gemini Biosystems), 100 U/mL penicillin, 100 μg/mL streptomycin, 5 mM glucose and 2 mM glutamine. For proliferation assays, MEFs were plated in complete medium, 5 h later briefly rinsed and then cultured in starvation medium as indicated. For EAA titration experiments, EAAs were supplemented at indicated percentages of 1×MEM amino acid solution (M5550, Sigma). Cancer cell lines were cultured in complete medium for 1 day prior to starvation. Numbers of adherent cells, which are >95% viable as assessed by Trypan Blue exclusion were determined using a Multisizer 4 Coulter Counter (Beckman). […]

wild type MEFs = assay: Lysosomal degradation of DQ-BSA in wild type MEFs; format: cell-based, mouse; conditions: 250 nM torin 1; 6 h DQ-BSA uptake
Procedure: (§1) For live imaging, medium was supplemented with 0.3 mg/ml DQ Green BSA. 1 h prior to imaging, 50 nM LysoTracker Red and 0.2 μg/ml Hoechst were added. Cells were imaged either immediately after addition of DQ-BSA and torin 1, or after 5-6 h incubation using a Zeiss LSM 5 LIVE.
To further investigate how Ras and mTORC1 signaling regulated lysosomal proteolysis of internalized proteins, the effects of mTORC1 inhibition and K-Ras activation were compared. […] Thus, K-Ras enhances a cell's ability to take up and degrade extracellular proteins. In contrast, whereas mTORC1 specifically restricts their lysosomal degradation.

[2] = tested on: Ulk1/2 DKO MEFs expressing K-Ras^G12V; assay: Proliferation of Ulk1/2 DKO MEFs expressing K-Ras^G12V; format: cell-based, mouse; conditions: leucine-free medium containing 3% albumin; 250 nM torin 1
Procedure: K-Ras^G12D MEFs were pre-treated for 1 h with 250 nM torin 1 and then incubated with fluorescently labeled dextran or albumin. Intracellular dextran or albumin was quantified after 30 min uptake. Data are represented as mean±STDEV (n=6 fields of view with >10 cells each). P-values were calculated using a two-tailed unpaired t-test. n.s. not significant. […] Uptake of fluorescently labeled dextran was quantified after 30 min uptake. Data are represented as mean±STDEV (n=8 fields of view with >10 cells each). P-values were calculated using a two-tailed unpaired t-test. n.s. not significant. […] K-Ras^G12D MEFs were pre-treated for 1 h with 250 nM torin 1, then incubated with fluorescently labeled dextran for indicated periods of time. Data are represented as mean±STDEV (n=8 fields of view with >10 cells each). […] Mean fluorescence intensity per cell was determined after 6 h of DQ-BSA uptake. Data are represented as mean±STDEV (n=7 fields of view with >15 cells each). P-values were calculated using a two-tailed unpaired t-test. ***p<0.001, n.s. not significant. […] DQ-BSA fluorescence intensity is represented as mean±STDEV (n=7 fields of view with >20 cells each). P-values were calculated using a two-tailed unpaired t-test. ***p<0.001. […] DQ-BSA fluorescence intensity is represented as mean±STDEV (n=6 fields of view with >30 cells each). P-values were calculated using a two-tailed unpaired t-test. […]

K-Ras^G12D MEFs = assay: Lysosomal degradation of DQ-BSA (fluorescence dequenching) in K-Ras^G12D MEFs; format: cell-based, mouse
Procedure: as §1
To characterize how cells derive leucine from extracellular proteins, cellular albumin uptake was investigated using constitutively fluorescent albumin and intracellular albumin proteolysis using a self-quenched albumin that emits fluorescence upon degradation (DQ-BSA) (Reis et al., 1998). […] It was then determined whether lysosomal albumin degradation was required to support growth during leucine starvation. […] Ras GTPases can promote cellular uptake of macromolecules through macropinocytosis (Bar-Sagi and Feramisco, 1986). […] To investigate whether this endocytic pathway contributed to albumin-dependent growth, cells were treated with the Na^+/H^+ exchange inhibitor EIPA, which blocks macropinocytosis but not other endocytic pathways (West et al., 1989).
To distinguish these possibilities, it was first tested whether mTORC1 inhibition increased internalization of extracellular macromolecules. […] It was next examined whether mTORC1 inhibition affected lysosomal degradation of internalized proteins.

Structure (SMILES): CCC(=O)N1CCN(c2ccc(-n3c(=O)ccc4cnc5ccc(-c6cnc7ccccc7c6)cc5c43)cc2C(F)(F)F)CC1 [torin 1]
- cell proliferation ([1]; leucine-containing medium +3% albumin, day 3): strongly decreased their proliferation
- cell proliferation ([1]; leucine-free medium +3% albumin, day 4): induced several carcinoma cell lines harboring activating Ras mutations to proliferate
- DQ-BSA fluorescence (wild type MEFs): significant increase
- cell proliferation [2]: enhanced proliferation
- DQ-BSA proteolysis, torin 1 combined with constitutive K-Ras activation (K-Ras^G12D MEFs; 250 nM torin 1, 6 h DQ-BSA uptake, versus either manipulation alone): almost four times more than either manipulation alone
- fluorescence dequenching of DQ-BSA (K-Ras^G12D MEFs; 250 nM torin 1, followed over time): dramatic increase
- rate of DQ-BSA degradation after torin 1 pre-treatment (K-Ras^G12D MEFs; pre-treating with 250 nM torin 1 for 6 h or 16 h): did not increase the rate of DQ-BSA degradation
